Target: T1, human PDE10A (Homo sapiens, UniProt Q9Y233)
T1 construct: The human PDE10A full length assay; purchased Enzo Life Science, Lausen, Switzerland SE-534
Assay: human PDE10A full length Scintillation Proximity Assay (SPA)
Type: biochemical
Conditions: 50 nM cGMP and 50 nM [3H]-cGMP, 20 minutes at room temperature; read-out: PDE10A inhibition IC50
Procedure: The following test was carried out in order to determine the activity of the compounds of the present invention. PDE10 activity of the compounds of the present invention was determined using a Scintillation Proximity Assay (SPA)-based method similar to the one previously described (Fawcett, L. et al., Proc Natl Acad Sci USA (2000) 97(7):3702-3707).
The human PDE10A full length assay was performed in 96-well micro titer plates. The reaction mixture of 50 μl contained 20 mM HEPES pH=7.5/10 mM MgCl2/0.05 mg/ml BSA (Sigma cat. #A-7906), 50 nM cGMP (Sigma, cat. #G6129) and 50 nM [^3H]-cGMP (GE Healthcare, cat. #TRK392 S.A. 13.2 Ci/mmol), 3.75 ng/well PDE10A enzyme (Enzo Life Science, Lausen, Switzerland cat #SE-534) with or without a specific test compound. A range of concentrations of the potential inhibitor was used to generate data for calculating the concentration of inhibitor resulting in 50% of the effect (e.g. IC50, the concentration of the competitor inhibiting PDE10A activity by 50%). Non-specific activity was tested without the enzyme. The reaction was initiated by the addition of the substrate solution (cGMP and [^3H]-cGMP) and allowed to progress for 20 minutes at room temperature. The reaction was terminated by adding 25 μl of YSi-SPA scintillation beads (GE Healthcare, cat. #RPNQ0150) in 18 mM zinc sulphate solution (stop reagent). After 1 h under shaking, the plate was centrifuged one minute at 170 g to allow beads to settle. Afterwards, radioactive counts were measured on a Perkin Elmer TopCount Scintillation plate reader.

T1 sequence (Q9Y233 1-779 isoform Q9Y233-1): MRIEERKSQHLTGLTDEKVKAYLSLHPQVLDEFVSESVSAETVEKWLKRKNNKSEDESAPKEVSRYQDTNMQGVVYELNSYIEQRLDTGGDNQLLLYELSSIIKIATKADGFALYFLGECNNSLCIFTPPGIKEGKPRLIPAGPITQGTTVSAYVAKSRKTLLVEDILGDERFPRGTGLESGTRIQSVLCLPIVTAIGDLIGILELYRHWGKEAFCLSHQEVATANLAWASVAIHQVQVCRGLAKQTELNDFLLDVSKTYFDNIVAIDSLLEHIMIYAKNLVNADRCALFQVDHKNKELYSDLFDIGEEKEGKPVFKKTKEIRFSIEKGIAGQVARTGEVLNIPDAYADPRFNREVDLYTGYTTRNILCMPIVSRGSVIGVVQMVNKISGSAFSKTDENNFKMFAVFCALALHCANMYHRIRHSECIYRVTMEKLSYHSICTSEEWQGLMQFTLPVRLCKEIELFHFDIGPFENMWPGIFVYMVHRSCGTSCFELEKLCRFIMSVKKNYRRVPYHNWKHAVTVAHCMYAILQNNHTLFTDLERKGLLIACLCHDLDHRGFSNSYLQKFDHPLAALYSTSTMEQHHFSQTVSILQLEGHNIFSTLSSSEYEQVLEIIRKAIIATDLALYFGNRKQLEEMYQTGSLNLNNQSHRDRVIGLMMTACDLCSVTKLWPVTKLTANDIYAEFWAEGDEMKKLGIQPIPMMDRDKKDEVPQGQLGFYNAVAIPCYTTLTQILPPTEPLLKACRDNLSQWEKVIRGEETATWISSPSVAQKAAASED

Row | SMILES | IC50 [nM]
1 | O=C(Nc1ccn2cc(-c3ccccc3)nc2n1)c1ccno1 [Example 2, Isoxazole-5-carboxylic acid (2-phenyl-imidazo[1,2-a]pyrimidin-7-yl)-amide] | 951
2 | Cc1nn(C)c(C(=O)Nc2ccn3cc(-c4ccccc4)nc3n2)c1Cl [Example 3, 4-Chloro-2,5-dimethyl-2H-pyrazole-3-carboxylic acid (2-phenyl-imidazo[1,2-a]pyrimidin-7-yl)-amide] | 97
3 | O=C(Nc1ccn2cc(-c3ccccc3)nc2n1)c1ccnn1-c1ccccc1 [Example 4, 2-Phenyl-2H-pyrazole-3-carboxylic acid (2-phenyl-imidazo[1,2-a]pyrimidin-7-yl)-amide] | 671
4 | Cc1nn(C)c(C(=O)Nc2ccn3cc(-c4ccccc4)nc3n2)c1Br [Example 5, 4-Bromo-2,5-dimethyl-2H-pyrazole-3-carboxylic acid (2-phenyl-imidazo[1,2-a]pyrimidin-7-yl)-amide] | 26.8
5 | Cn1ncc(Br)c1C(=O)Nc1ccn2cc(-c3ccccc3)nc2n1 [Example 6, 4-Bromo-2-methyl-2H-pyrazole-3-carboxylic acid (2-phenyl-imidazo[1,2-a]pyrimidin-7-yl)-amide] | 384
6 | CCn1ncc(Cl)c1C(=O)Nc1ccn2cc(-c3ccccc3)nc2n1 [Example 7, 4-Chloro-2-ethyl-2H-pyrazole-3-carboxylic acid (2-phenyl-imidazo[1,2-a]pyrimidin-7-yl)-amide] | 140
7 | CCCn1ncc(Cl)c1C(=O)Nc1ccn2cc(-c3ccccc3)nc2n1 [Example 8, 4-Chloro-2-propyl-2H-pyrazole-3-carboxylic acid (2-phenyl-imidazo[1,2-a]pyrimidin-7-yl)-amide] | 64.7
8 | CCCCn1ncc(Cl)c1C(=O)Nc1ccn2cc(-c3ccccc3)nc2n1 [Example 9, 2-Butyl-4-chloro-2H-pyrazole-3-carboxylic acid (2-phenyl-imidazo[1,2-a]pyrimidin-7-yl)-amide] | 44.6
9 | CC(C)n1ncc(Cl)c1C(=O)Nc1ccn2cc(-c3ccccc3)nc2n1 [Example 10, 4-Chloro-2-isopropyl-2H-pyrazole-3-carboxylic acid (2-phenyl-imidazo[1,2-a]pyrimidin-7-yl)-amide] | 105
10 | CCC(C)n1ncc(Cl)c1C(=O)Nc1ccn2cc(-c3ccccc3)nc2n1 (stereo not shown) [Example 11, 2-sec-Butyl-4-chloro-2H-pyrazole-3-carboxylic acid (2-phenyl-imidazo[1,2-a]pyrimidin-7-yl)-amide] | 105
11 | CC(C)Cn1ncc(Cl)c1C(=O)Nc1ccn2cc(-c3ccccc3)nc2n1 [Example 12, 4-Chloro-2-isobutyl-2H-pyrazole-3-carboxylic acid (2-phenyl-imidazo[1,2-a]pyrimidin-7-yl)-amide] | 18.8
12 | CC(C)Cn1nc([N+](=O)[O-])cc1C(=O)Nc1ccn2cc(-c3ccccc3)nc2n1 [Example 13, 2-Isobutyl-5-nitro-2H-pyrazole-3-carboxylic acid (2-phenyl-imidazo[1,2-a]pyrimidin-7-yl)-amide] | 47.9
13 | O=C(Nc1ccn2cc(-c3ccccc3)nc2n1)c1cc([N+](=O)[O-])nn1C1CCCC1 [Example 14, 2-Cyclopentyl-5-nitro-2H-pyrazole-3-carboxylic acid (2-phenyl-imidazo[1,2-a]pyrimidin-7-yl)-amide] | 125
14 | CCn1nc([N+](=O)[O-])cc1C(=O)Nc1ccn2cc(-c3ccccc3)nc2n1 [Example 15, 2-Ethyl-5-nitro-2H-pyrazole-3-carboxylic acid (2-phenyl-imidazo[1,2-a]pyrimidin-7-yl)-amide] | 748
15 | CC(C)n1nc([N+](=O)[O-])cc1C(=O)Nc1ccn2cc(-c3ccccc3)nc2n1 [Example 16, 2-Isopropyl-5-nitro-2H-pyrazole-3-carboxylic acid (2-phenyl-imidazo[1,2-a]pyrimidin-7-yl)-amide] | 82.1
16 | Cc1ccc(C)c(C(=O)Nc2ccn3cc(-c4ccccc4)nc3n2)n1 [Example 17, 3,6-Dimethyl-pyridine-2-carboxylic acid (2-phenyl-imidazo[1,2-a]pyrimidin-7-yl)-amide] | 28.3
17 | O=C(Nc1ccn2cc(-c3ccccc3)nc2n1)c1noc2c1CCCC2 [Example 18, 4,5,6,7-Tetrahydro-benzo[d] isoxazole-3-carboxylic acid (2-phenyl-imidazo[1,2-a]pyrimidin-7-yl)-amide] | 147

Row | SMILES | IC50 [nM]
18 | O=C(Nc1ccn2cc(-c3ccccc3)nc2n1)c1ccnc(Cl)c1 [Example 19, 2-Chloro-N-(2-phenyl-imidazo[1,2-a]pyrimidin-7-yl)-isonicotinamide] | 553
19 | Cn1ncc(-c2ccno2)c1C(=O)Nc1ccn2cc(-c3ccccc3)nc2n1 [Example 20, 4-Isoxazol-5-yl-2-methyl-2H-pyrazole-3-carboxylic acid (2-phenyl-imidazo[1,2-a]pyrimidin-7-yl)-amide] | 643
20 | O=C(Nc1ccn2cc(-c3ccccc3)nc2n1)c1cccc(Cl)n1 [Example 21, 6-Chloro-pyridine-2-carboxylic acid (2-phenyl-imidazo[1,2-a]pyrimidin-7-yl)-amide] | 314
21 | COc1cccc(C(=O)Nc2ccn3cc(-c4ccccc4)nc3n2)n1 [Example 22, 6-Methoxy-pyridine-2-carboxylic acid (2-phenyl-imidazo[1,2-a]pyrimidin-7-yl)-amide] | 42
22 | Cc1cc(Br)cnc1C(=O)Nc1ccn2cc(-c3ccccc3)nc2n1 [Example 23, 5-Bromo-3-methyl-pyridine-2-carboxylic acid (2-phenyl-imidazo[1,2-a]pyrimidin-7-yl)-amide] | 64.3
23 | Cc1cc(Br)c(C)c(C(=O)Nc2ccn3cc(-c4ccccc4)nc3n2)n1 [Example 24, 4-Bromo-3,6-dimethyl-pyridine-2-carboxylic acid (2-phenyl-imidazo[1,2-a]pyrimidin-7-yl)-amide] | 321
24 | Cc1cccc(C(=O)Nc2ccn3cc(-c4ccccc4)nc3n2)n1 [Example 25, 6-Methyl-pyridine-2-carboxylic acid (2-phenyl-imidazo[1,2-a]pyrimidin-7-yl)-amide] | 324
25 | COC(=O)c1[nH]nnc1C(=O)Nc1ccn2cc(-c3ccccc3)nc2n1 [Example 26, 5-(2-Phenyl-imidazo[1,2-a]pyrimidin-7-ylcarbamoyl)-3H-[1,2,3]triazole-4-carboxylic acid methyl ester] | 24
26 | O=C(Nc1ccn2cc(-c3ccccc3)nc2n1)c1nn[nH]c1C(=O)N1CCC1 [Example 27, 5-(Azetidine-1-carbonyl)-1H-[1,2,3]triazole-4-carboxylic acid (2-phenyl-imidazo[1,2-a]pyrimidin-7-yl)-amide] | 163
27 | CCN(C)C(=O)c1[nH]nnc1C(=O)Nc1ccn2cc(-c3ccccc3)nc2n1 [Example 28, 1H-[1,2,3]Triazole-4,5-dicarboxylic acid 5-(ethyl-methyl-amide) 4-[(2-phenyl-imidazo[1,2-a]pyrimidin-7-yl)-amide]] | 251
28 | Cn1ncc(C(=O)N2CCC2)c1C(=O)Nc1ccn2cc(-c3ccccc3)nc2n1 [Example 29, 4-(Azetidine-1-carbonyl)-2-methyl-2H-pyrazole-3-carboxylic acid (2-phenyl-imidazo[1,2-a]pyrimidin-7-yl)-amide] | 3.3
29 | Cn1ncc(C(=O)N2CCOCC2)c1C(=O)Nc1ccn2cc(-c3ccccc3)nc2n1 [Example 30, 2-Methyl-4-(morpholine-4-carbonyl)-2H-pyrazole-3-carboxylic acid (2-phenyl-imidazo[1,2-a]pyrimidin-7-yl)-amide] | 33.1
30 | CNC(=O)c1cnn(C)c1C(=O)Nc1ccn2cc(-c3cccc(Cl)c3)nc2n1 [Example 32, 2-Methyl-2H-pyrazole-3,4-dicarboxylic acid 3-{[2-(3-chloro-phenyl)-imidazo[1,2-a]pyrimidin-7-yl]-amide}4-methylamide] | 22.8
31 | Cn1ncc(C(=O)N2CC(F)(F)C2)c1C(=O)Nc1ccn2cc(-c3ccccc3)nc2n1 [Example 34, 4-(3,3-Difluoro-azetidine-1-carbonyl)-2-methyl-2H-pyrazole-3-carboxylic acid (2-phenyl-imidazo[1,2-a]pyrimidin-7-yl)-amide] | 35
32 | Cn1ncc(C(=O)N2CC(O)C2)c1C(=O)Nc1ccn2cc(-c3ccccc3)nc2n1 [Example 36, 4-(3-Hydroxy-azetidine-1-carbonyl)-2-methyl-2H-pyrazole-3-carboxylic acid (2-phenyl-imidazo[1,2-a]pyrimidin-7-yl)-amide] | 32
33 | Cn1ncc(C(=O)NCCCO)c1C(=O)Nc1ccn2cc(-c3ccccc3)nc2n1 [Example 38] | 22.9
34 | COCCCNC(=O)c1cnn(C)c1C(=O)Nc1ccn2cc(-c3ccccc3)nc2n1 [Example 39, 2-Methyl-2H-pyrazole-3,4-dicarboxylic acid 4-[(3-methoxy-propyl)-amide]3-[(2-phenyl-imidazo[1,2-a]pyrimidin-7-yl)-amide]] | 86.4

Reference: patent publication US8410117B2, “Imidazopyrimidine derivatives” (Hoffmann-La Roche Inc., priority 2010, dated 2013)
